Where no end group is shown, it is not given here.
Tests used:
[1] = tested on: Arabidopsis endodermic root cells; assay: Root cell length, endodermis of differentiation zone; format: in vivo, Arabidopsis thaliana; conditions: 10 μM, 2 days
Protocol: (A) and (B) Arabidopsis seedlings (2 days old) were treated with 10 μM AtRALF1 or water (H20) for 2 days. The values are the mean ± SD of at least 25 seedlings. Triple asterisks indicate P < 0.01 (Student’s t test); ns, not significant. (C) Four-day-old seedlings were transferred to media containing different concentrations of AtRALF1, and the primary root length was measured after 8 days of treatment. The data represent the mean value ± SD of 30 seedlings. […] Representative Arabidopsis seedlings after 8 days of treatment with AtRALF1 are shown below. Seedlings were arranged on plates after the treatment for imaging. Scale bars, 1 cm. (D) Two-day-old seedlings were treated with 10 μM AtRALF1 or water for 2 days, and root cell length was measured after 2 days of treatment. Cells from the root endodermis in the differentiation zone were measured. The values are the mean ± SD of approximately 150 cells. […]
Aliquots of 1 ml of medium containing seeds were distributed into 24-well plates. The peptides (10 μM) were added after 2 days, and the root length was measured 2 days after treatment. […] The root length was measured 8 days after treatment unless stated otherwise. […] Quantitative data were obtained as previously described. […] For cell length measurements, AtRALF1 peptide (10 μM) was added after 2 days of germination, and the cell length was measured after 2 days of treatment. […]

BAK1 gene = BAK1 gene expression in roots (semi-quantitative RT-PCR and qRT-PCR); format: in vivo, Arabidopsis thaliana; conditions: 1 μM, 1 h, Arabidopsis seedlings
Protocol: Arabidopsis plants were grown for 10 days in vertical plates and then treated in liquid medium containing 1 μM AtRALF1 for 1 h at room temperature. Control plants were incubated under identical conditions in a peptide-free medium. The total RNA was isolated from the roots of Arabidopsis plants using TRIzol reagent according to the manufacturer’s instructions (Life Technologies). The cDNA was synthesized using the ImProm-II Reverse Transcription System (Promega) and 1 μg of RNA. An aliquot of cDNA (1.5 μl) was used as the template in the PCR reaction, which was performed for 29 cycles, unless indicated otherwise, using gene-specific primers (S1 Table). The glyceraldehyde 3-phosphate dehydrogenase (GAPDH) gene was used as an internal control. All experiments were repeated at least three times with independent biological replicates. The data shown are from one representative experiment.
The qRT-PCR analysis was performed using 10-fold-diluted cDNA, Maxima SYBR Green Rox/qPCR Master Mix (Thermo Scientific) and a StepOne Real-Time PCR System (Applied Biosystems). The glyceraldehyde 3-phosphate dehydrogenase (GAPDH) gene was used as an internal control. […] The threshold cycle (CT) was determined by the instrument, and the ΔΔCT method was used to calculate the fold change in each gene. […] Three replicates were analyzed for each biological sample, and two biological samples were analyzed. […]

[2] = tested on: BAK1 gene promoter / BAK1-GFP; assay: Quantification of GFP in roots of pBAK1:BAK1-GFP plants; format: in vivo, Arabidopsis thaliana; conditions: 1 μM, 4 h
Protocol: Transgenic Arabidopsis plants were grown for 4 days in liquid medium and treated with 1 μM AtRALF1 for 4 h. After 4 h of agitation at room temperature, the intensity of GFP in the roots was analyzed by confocal microscopy (Olympus FV1000). Control plants were kept in a peptide-free medium. The GFP excitation wavelength was 488 nm, and the emission wavelength was 540 nm. Images were generated by a scanner depth of 7 μm. Ten slices per root were generated and compacted in one image. Image processing was performed using the Olympus FluoView software. An average of 20 seedlings were observed under the microscope in at least 3 different experiments using independent biological replicates.

BAK1 = BAK1 phosphorylation assay, anti-phosphothreonine; format: in vivo, Arabidopsis thaliana; conditions: 20 min
Protocol: Transgenic plants pBAK1:BAK1-6xHA were grown in vertical plates for 10–15 days. The plants were treated with 0.1 μM BL, 2 μM RALF1(9–49), 1 μM, 2 μM or 10 μM AtRALF1 for 20 min. The roots were isolated, and the microsomal fractions were obtained as described above. The microsomal fractions were incubated with anti-HA beads (EZview Red Anti-HA Affinity Gel, Sigma) for 2 h at 4 °C to immunoprecipitate the BAK1 protein. The unbound materials were removed by washing 3 times. Proteins were separated by SDS/PAGE and further analyzed by protein blotting using anti-HA (Thermo Scientific), or anti-phosphothreonine (Novus Biologicals), or anti-phosphoserine (Novus Biologicals) antibodies.

[3] = tested on: Arabidopsis seedlings, primary root; conditions: ref [10], cited from earlier work
From the text: FERONIA (FER), a receptor-like kinase with an extracellular malectin-like domain, has been identified as the receptor of the root-specific isoform AtRALF1 [10]. LORELEI (LRE) and LRE-like GPI-AP1 (LLG1) are two glycosylphosphatidylinositol-anchored proteins found in ovules and vegetative tissues, respectively, that physically interact with FER and are required for FER delivery to the cell membrane and FER signaling. […] In a search for putative genetic components that might be shared by both the AtRALF1 and BR signaling pathways, we tested mutants lacking different components of the BR signaling pathway in root growth assays with inhibitory concentrations of the AtRALF1 peptide. […] A previous study in which 18 receptor-like proteins were tested in root g ...

## AtRALF1: root-specific RALF isoform in Arabidopsis; recombinant peptide hormone produced in E. coli (ATTKYISYQSLKRNSVPCSRRGASYYNCQNGAQANPYSRGCSKIARCRS; ends and bridges not checked; cysteine pairing not given here)
[1]; bak1-1, bak1-3, bak1-4
  root cell length vs water-treated control: showed no difference between AtRALF1-treated plants and the water-treated control
[1]; wild-type, ~150 cells
  reduction of root cell length vs water-treated control: 58%
BAK1 gene
  BAK1 gene expression in roots: induced BAK1 gene expression in the roots up to levels found in untreated p35S:AtRALF1 roots
[2]
  BAK1-GFP fluorescent signal in roots: quantitative increase in fluorescent signal in the roots
BAK1; 10 μM
  further increase of BAK1 Thr phosphorylation: did not result in further increases in phosphorylation
BAK1; pBAK1:BAK1-HA roots
  upper concentration of dose-dependent BAK1 Thr phosphorylation: up to 2 μM
BAK1; pBAK1:BAK1-HA roots, AtRALF1 1, 2, 10 μM, BL 0.1 μM
  BAK1 phosphorylation in threonine residues: increase in BAK1 phosphorylation in the threonine residues similar to the increase resulting from the treatment of the seedlings with BL
[3]; FERONIA mutant fer4, low concentrations
  root growth inhibition, sensitivity of fer4: insensitive to low concentrations of the AtRALF1 peptide
[3]; bak1-4 mutant, 1 μM
  root growth inhibition: the roots of the bak1-4 mutant were inhibited by the peptide

From PMC5656322, “BAK1 is involved in AtRALF1-induced inhibition of root cell expansion” (PLoS Genetics, 2017)
